From US20240400591A1 (Jacobio Pharmaceuticals Co., Ltd., priority 2021, published 2024)

Target: T1, His-p53 Y220C (94-294) protein (Homo sapiens, UniProt P04637, Y220C)
T1 construct: His-p53 Y220C (94-294) protein
Assay: In vitro DNA binding assay (HTRF)
Format: biochemical
Settings: % activation normalized to 2 μM Ref-1a high control

| Structure (SMILES) | EC50 |
| --- | --- |
| CN1CCC(Nc2cccc3c(CC(F)(F)F)c(C#CCNc4ccc(S(N)(=O)=O)cc4)sc23)CC1 [Example 4, 4-((3-(7-((1-methylpiperidin-4-yl)amino)-3-(2,2,2-trifluoroethyl)benzo[b]thiophen-2-yl)prop-2-yn-1-yl)amino) benzenesulfonamide] | 99 nM |
| COc1cc(S(C)(=O)=O)ccc1NCC#Cc1sc2c(NC3CCN(C)CC3)ccc(F)c2c1CC(F)(F)F [Example 51, N-(4-fluoro-2-(3-((2-methoxy-4-(methylsulfonyl)phenyl)amino)prop-1-yn-1-yl)-3-(2,2,2-trifluoroethyl)benzo[b]thiophen-7-yl)-1-methylpiperidin-4-amine] | 479 nM |
| COc1cc(S(C)(=O)=O)ccc1NCC#Cc1sc2c(N[C@H]3CC[C@H](N4CC5(CCOCC5)C4)CC3)cccc2c1CC(F)(F)F [Example 18, Trans-N-(4-(7-oxa-2-azaspiro[3.5]nonan-2-yl)cyclohexyl)-2-(3-((2-methoxy-4-(methylsulfonyl)phenyl)amino)prop-1-yn-1-yl)-3-(2,2,2-trifluoroethyl)benzo[b]thiophen-7-amine] | 173 nM |
| COc1cc(P(C)(C)=O)ccc1NCC#Cc1sc2c(NCC34CCCN3CCC4)cccc2c1CC(F)(F)F [Example 54, (3-methoxy-4-((3-(7-(((tetrahydro-1H-pyrrolizin-7a(5H)-yl)methyl)amino)-3-(2,2,2-trifluoroethyl)benzo[b]thiophen-2-yl)prop-2-yn-1-yl)amino)phenyl)dimethylphosphine oxide] | 224 nM |
| COc1cc(P(C)(C)=O)ccc1NCC#Cc1sc2c(NC3CCN(C)CC3F)cccc2c1-c1cncs1 (centres unmarked) [Example 116, (4-((3-(7-(((Z)-3-fluoro-1-methylpiperidin-4-yl)amino)-3-(thiazol-5-yl)benzo[b]thiophen-2-yl)prop-2-yn-1-yl)amino)-3-methoxyphenyl)dimethylphosphine oxide] | 5130 nM |
| COc1cc(P(C)(C)=O)ccc1NCC#Cc1sc2c(NC3CCN(C)CC3C#N)cccc2c1CC(F)(F)F (centres unmarked) [Example 90, 4-((2-(3-((4-(dimethylphosphoryl)-2-methoxyphenyl)amino)prop-1-yn-1-yl)-3-(2,2,2-trifluoroethyl)benzo[b]thiophen-7-yl)amino)-1-methylpiperidine-3-carbonitrile] | 272 nM |
| COc1cc(S(=O)(=O)N2CCOCC2)ccc1NCC#Cc1sc2c(NC3CCN(C)CC3)cccc2c1CC(F)(F)F [Example 22, N-(2-(3-((2-methoxy-4-(morpholinosulfonyl)phenyl)amino)prop-1-yn-1-yl)-3-(2,2,2-trifluoroethyl)benzo[b]thiophen-7-yl)-1-methylpiperidin-4-amine] | 288 nM |
| COc1cc(S(C)(=O)=O)ccc1NCC#Cc1sc2c(NCC3CCN(C)CC3)cccc2c1CC(F)(F)F [Example 56, 2-(3-((2-methoxy-4-(methylsulfonyl)phenyl)amino)prop-1-yn-1-yl)-N-((1-methylpiperidin-4-yl)methyl)-3-(2,2,2-trifluoroethyl)benzo[b]thiophen-7-amine] | 284 nM |
| COc1cc(C(=O)N2CCS(=O)(=O)CC2)ccc1NCC#Cc1sc2c(N[C@H]3CCN(C)C[C@H]3F)cccc2c1CC(F)(F)F (racemic) [Example 48, (1,1-dioxidothiomorpholino)(4-((3-(7-(((3R,4S)-3-fluoro-1-methylpiperidin-4-yl)amino)-3-(2,2,2-trifluoroethyl)benzo[b]thiophen-2-yl)prop-2-yn-1-yl)amino)-3-methoxyphenyl)methanone] | 84 nM |
| COCCCN1CCC(Nc2cccc3c(CC(F)(F)F)c(C#CCNc4ccc(S(C)(=O)=O)cc4OC)sc23)CC1 [Example 20, N-[2-[3-(2-methoxy-4-methylsulfonyl-anilino)prop-1-ynyl]-3-(2,2,2-trifluoroethyl)benzothiophen-7-yl]-1-(3-methoxypropyl)piperidin-4-amine] | 188 nM |
| CN1CCC(Nc2cccc3c(CC(F)(F)F)c(C#CCNc4ccc(P(C)(C)=O)cc4)sc23)CC1 [Example 9, dimethyl(4-((3-(7-((1-methylpiperidin-4-yl)amino)-3-(2,2,2-trifluoroethyl)benzo[b]thiophen-2-yl)prop-2-yn-1-yl)amino)phenyl)phosphine oxide] | 114 nM |
| COc1cc(P(C)(C)=O)ccc1OCC#Cc1sc2c(N[C@@H]3CCN(C)C[C@@H]3F)cccc2c1CC(F)(F)F (racemic) [Example 123, (4-((3-(7-(((Z)-3-fluoro-1-methylpiperidin-4-yl)amino)-3-(2,2,2-trifluoroethyl)benzo[b]thiophen-2-yl)prop-2-yn-1-yl)oxy)-3-methoxyphenyl)dimethylphosphine oxide] | 147 nM |
| COc1cc(P(C)(C)=O)ccc1NCC#Cc1sc2c(NC3CCN(C)CC3)ccnc2c1CC(F)(F)F [Example 71, (3-methoxy-4-((3-(7-((1-methylpiperidin-4-yl)amino)-3-(2,2,2-trifluoroethyl)thieno[3,2-b]pyridin-2-yl)prop-2-yn-1-yl)amino)phenyl)dimethylphosphine oxide] | 1030 nM |
| CCc1c(C#CCNc2ccc(S(N)(=O)=O)cc2)sc2c(NC3CCN(C)CC3)cccc12 [Example 1, 4-((3-(3-ethyl-7-((1-methylpiperidin-4-yl)amino)benzo[b]thiophen-2-yl)prop-2-yn-1-yl)amino)benzenesulfonamide] | 345 nM |
| C[C@H](C#Cc1sc2c(NC3CCN(C)CC3)cccc2c1CC(F)(F)F)Nc1ccc(S(N)(=O)=O)cc1 [Example 44, (R)-4-((4-(7-((1-methylpiperidin-4-yl)amino)-3-(2,2,2-trifluoroethyl)benzo[b]thiophen-2-yl)but-3-yn-2-yl)amino)benzenesulfonamide] | 2910 nM |
| COc1cc(P(C)(C)=O)cc(F)c1NCC#Cc1sc2c(N[C@@H]3CCN(C)C[C@@H]3F)cccc2c1CC(F)(F)F [Example 206, (3-fluoro-4-((3-(7-(((3S,4R)-3-fluoro-1-methylpiperidin-4-yl)amino)-3-(2,2,2-trifluoroethyl)benzo[b]thiophen-2-yl)prop-2-yn-1-yl)amino)-5-methoxyphenyl)dimethylphosphine oxide] | 205 nM |
| COc1cc(P(C)(C)=O)ccc1NCC#Cc1sc2c(N[C@@H]3CCN(C4CCS(=O)(=O)CC4)C[C@@H]3F)cccc2c1CC(F)(F)F (relative stereo) [Example 93, (Z)—N-[2-[3-(4-dimethylphosphoryl-2-methoxy-anilino)prop-1-ynyl]-3-(2,2,2-trifluoroethyl)benzothiophen-7-yl]-1-(1,1-dioxothian-4-yl)-3-fluoro-piperidin-4-amine] | 151 nM |
| COc1cc(P(C)(C)=O)ccc1NCC#Cc1sc2c(N[C@@H]3CCN(C4CC(C)(C)OC(C)(C)C4)C[C@@H]3F)cccc2c1CC(F)(F)F [Example 181, (4-((3-(7-(((3S,4R)-3-fluoro-1-(2,2,6,6-tetramethyltetrahydro-2H-pyran-4-yl)piperidin-4-yl)amino)-3-(2,2,2-trifluoroethyl)benzo[b]thiophen-2-yl)prop-2-yn-1-yl)amino)-3-methoxyphenyl)dimethylphosphine oxide] | 96 nM |
| CN1CCC(Nc2cccc3c(CC(F)(F)F)c(C#CCNc4cccc5c(C6CCNCC6)c[nH]c45)sc23)CC1 [Example 30, N-(3-(7-((1-methylpiperidin-4-yl)amino)-3-(2,2,2-trifluoroethyl)benzo[b]thiophen-2-yl)prop-2-yn-1-yl)-3-(piperidin-4-yl)-1H-indol-7-amine] | 452 nM |
| CN1CCC(Nc2cccc3c(CC(F)(F)F)c(C#CCNc4ccc(S(C)(=O)=O)cc4OCF)sc23)CC1 [Example 11, N-(2-(3-((2-(fluoromethoxy)-4-(methylsulfonyl)phenyl)amino)prop-1-yn-1-yl)-3-(2,2,2-trifluoroethyl)benzo[b]thiophen-7-yl)-1-methylpiperidin-4-amine] | 114 nM |
| COc1cc(S(=O)(=O)NCC(O)CO)ccc1NCC#Cc1sc2c(NC3CCN(C)CC3)cccc2c1CC(F)(F)F (centres unmarked) [Example 24, N-(2,3-dihydroxypropyl)-3-methoxy-4-((3-(7-((1-methylpiperidin-4-yl)amino)-3-(2,2,2-trifluoroethyl)benzo[b]thiophen-2-yl)prop-2-yn-1-yl)amino)benzenesulfonamide] | 56 nM |
| COc1cc(S(C)(=O)=O)ccc1NCC#Cc1sc2c(NC3CCN(C)CC3F)cccc2c1CC(F)(F)F (centres unmarked) [Example 2, (Z)-3-fluoro-N-(2-(3-((2-methoxy-4-(methylsulfonyl)phenyl)amino)prop-1-yn-1-yl)-3-(2,2,2-trifluoroethyl)benzo[b]thiophen-7-yl)-1-methylpiperidin-4-amine] | 44 nM |
| COc1cc(S(N)(=O)=O)ccc1NCC#Cc1sc2c(NC3CCN(C)CC3)cccc2c1CC(F)(F)F [Example 23, 3-methoxy-4-((3-(7-((1-methylpiperidin-4-yl)amino)-3-(2,2,2-trifluoroethyl)benzo[b]thiophen-2-yl)prop-2-yn-1-yl)amino)benzenesulfonamide] | 100 nM |
| COc1cc(C(=O)N2CCOCC2)ccc1NCC#Cc1sc2c(NC3CCN(C)CC3F)cccc2c1CC(F)(F)F (centres unmarked) [Example 50, (4-((3-(7-(((Z)-3-fluoro-1-methylpiperidin-4-yl)amino)-3-(2,2,2-trifluoroethyl)benzo[b]thiophen-2-yl)prop-2-yn-1-yl)amino)-3-methoxyphenyl)(morpholino)methanone] | 86 nM |
| COc1cc(NCC#Cc2sc3c(NC4CCN(C)CC4F)cccc3c2CC(F)(F)F)ccc1P(C)(C)=O (centres unmarked) [Example 151, (4-((3-(7-(((Z)-3-fluoro-1-methylpiperidin-4-yl)amino)-3-(2,2,2-trifluoroethyl)benzo[b]thiophen-2-yl)prop-2-yn-1-yl)amino)-2-methoxyphenyl)dimethylphosphine oxide] | 60 nM |
| COc1cc2c(cc1NCC#Cc1sc3c(N[C@@H]4CCN(C)C[C@@H]4F)cccc3c1CC(F)(F)F)CNS2(=O)=O (racemic) [Example 77, 5-((3-(7-(((Z)-3-fluoro-1-methylpiperidin-4-yl)amino)-3-(2,2,2-trifluoroethyl)benzo[b]thiophen-2-yl)prop-2-yn-1-yl)amino)-6-methoxy-2,3-dihydrobenzo[d]isothiazole 1,1-dioxide] | 904 nM |
